From patent US20160281050A1, “METHODS FOR TREATING A CULTURE OF HAEMATOCOCCUS PLUVIALIS FOR CONTAMINATION USING SALT AND HYDROGEN PEROXIDE” (HELIAE DEVELOPMENT LLC, priority 2015, published 2016)
Read-outs that look alike come from different tables or passages of the source.

What was measured:
[1] = tested on: Haematococcus pluvialis (Strain 1) green swimmer cells
Description: (§1) An experiment was conducted to determine if treating a culture of Haematococcus pluvialis with hydrogen peroxide affects the live bacteria count. […] The culture in bioreactor #2210 was treated with 0.33 mL/L hydrogen peroxide 3% stock concentration (calculated concentration of 0.0099 mL/L) every 6 hours for the duration of the culture's green swimmer stage (90 hours). The culture in bioreactor #2230 was not treated to serve as a control for comparison. Samples were taken to assess motility, lysis, and the live bacteria count in the cultures at 11, 34, 52, and 66 hours.

live bacteria = settings: 0.0099 mL/L every 6 hours
Description: as §1

[2] = tested on: Haematococcus pluvialis (Strain 2); assay: % lysis and culture dry weight in flasks (Example 11)
Description: Culture samples of Haematococcus pluvialis (Strain 2) were collected on the second day of culture from open raceway bioreactor #2410 operating in conditions: reactor volume of 150,000 L; Daily PAR of 9.77 mol m^−2 d^−1; pH of 7.3; and paddlewheel speed of 70%. Culture samples were distributed into flasks for culturing, consisting of duplicate untreated controls and duplicate treatments. […] Samples were taken from the flask cultures daily to quantify % lysis and % chytrid infection and cell dry weight was quantified every other day for a duration of 11 days.

[3] = tested on: Haematococcus pluvialis (Strain 1) green swimmer cells; assay: Commercial scale cultures: lysis, carotenoid content (UV), average growth rate (Example 5); settings: for Maximum % Lysis of Culture: 0.007 mL/L every six hours
Description: The findings from the flask test samples were then applied to commercial scale cultures of Haematococcus pluvialis (Strain 1) containing green swimmer cells that were transferred from open raceway pond bioreactor #2310 disposed in a greenhouse, using paddlewheel mixing, and operating in conditions: reactor volume of 55,000 L; Daily PAR of 42 mol m^−2 d^−1; pH of 7.5; and paddlewheel speed of 40%; to open raceway pond bioreactor #2420 disposed in a greenhouse, using paddlewheel mixing, operating in conditions: reactor volume of 140,000 L; Daily PAR of 40 mol m^−2 d^−1; pH of 7.3; and paddlewheel speed of 70%. Similarly, the culture in bioreactor #2320, operating in conditions: reactor volume of 60,000 L; Daily PAR of 42 mol m^−2 d^−1; pH of 7.5; and paddlewheel speed of 40%; was transferred by being split into pond bioreactors #2410 and 2430 operating in conditions: reactor volume of 150,000 L; Daily PAR of 40 mol m^−2 d^−1; pH of 7.3; and paddlewheel speed of 70%. […] Lysis was quantified upon harvest of the culture through visual observation of samples under a microscope. Carotenoid content of the cells was measured by UV method upon harvest, and the average growth rate of the culture was calculated based on periodic dry weight samples. The results were compared to data from previous culture runs in the same bioreactors or bioreactors with similar operating conditions during the same month (September 2014) at the same location.

chytrids = assay: % chytrid infection in 230 L reactors, salt treatment (Example 12); assay type: cell-based
Description: This test was done side by side in flasks (0.1 L) and in reactors located in a greenhouse operating in conditions: reactor volume of 230 L; Daily PAR of 20 mol m^−2 d^−1; pH (not measured); and paddlewheel speed of 21 RPM. […] The flask cultures were mixed by shaking at 140 rpm and received 300-400 μmol/m^2 s of photosynthetically active radiation (PAR) in 12 hour light cycles and constant supply of 2.5% CO2. The motility of the culture was monitored by visual observation under a microscope. […] Nine 230 L reactors were also seeded with culture from bioreactor #2410 on the same day as the flasks and brought to 2 ppt concentration of salt. Once motility of the cells was reduced to <10% (day 3 of culture for flasks and day 2 for 230 L reactors) the level of salt was elevated to a point between 4-18 ppt and compared to the culture in two reactors remaining at 2 ppt salt. Flasks and 230 L reactors were monitored for percentage of cell lysis via visual observation under a microscope, culture dry weight (biomass accumulation in g/L), and percentage of chytrid infection via visual observation under a microscope. Carotenoid production, a proxy for determining astaxanthin, was quantified every other day of culture in the 230 L reactors using the UV method.

hydrogen peroxide [H2O2]
Motility [1]: above 60% | lysis [1]: ≤ 15% | reduction in the bacteria count (live bacteria; vs untreated control): approximately 1 log | Live Bacteria Count (live bacteria; 11 h): 4.8 × 10^5 CFU/mL | Live Bacteria Count (live bacteria; 34 h): 5.5 × 10^6 CFU/mL | Live Bacteria Count (live bacteria; 52 h): 1.8 × 10^5 CFU/mL | Live Bacteria Count (live bacteria; 66 h): 4.5 × 10^5 CFU/mL | % Lysis ([2]; 0.0105 mL/L 1 time daily for 3 days, day 1): 5.0 ± 5.0% | % Lysis ([2]; 0.0105 mL/L 1 time daily for 3 days, day 2): 3.3 ± 0.0% | % Lysis ([2]; 0.0105 mL/L 1 time daily for 3 days, day 3): 7.5 ± 1.2% | % Lysis ([2]; 0.0105 mL/L 1 time daily for 3 days, day 4): 0.8 ± 1.2% | % Lysis ([2]; 0.0105 mL/L 1 time daily for 3 days, day 5): 5.0 ± 0.0% | % Lysis ([2]; 0.0105 mL/L 1 time daily for 3 days, day 6): 4.2 ± 1.2% | % Lysis ([2]; 0.0105 mL/L 1 time daily for 3 days, day 7): 1.7 ± 2.4% | % Lysis ([2]; 0.0105 mL/L 1 time every other day, day 1): 5.0 ± 5.0% | % Lysis ([2]; 0.0105 mL/L 1 time every other day, day 2): 3.3 ± 2.4% | % Lysis ([2]; 0.0105 mL/L 1 time every other day, day 3): 4.2 ± 1.2% | % Lysis ([2]; 0.0105 mL/L 1 time every other day, day 4): 3.3 ± 0.0% | % Lysis ([2]; 0.0105 mL/L 1 time every other day, day 5): 3.3 ± 2.4% | % Lysis ([2]; 0.0105 mL/L 1 time every other day, day 6): 3.3 ± 2.4% | % Lysis ([2]; 0.0105 mL/L 1 time every other day, day 7): 3.3 ± 0.0% | % Lysis ([2]; 0.0105 mL/L 1 time per day, day 1): 5.0 ± 5.0% | % Lysis ([2]; 0.0105 mL/L 1 time per day, day 2): 2.5 ± 1.2% | % Lysis ([2]; 0.0105 mL/L 1 time per day, day 3): 5.8 ± 3.5% | % Lysis ([2]; 0.0105 mL/L 1 time per day, day 4): 4.2 ± 1.2% | % Lysis ([2]; 0.0105 mL/L 1 time per day, day 5): 4.2 ± 3.5% | % Lysis ([2]; 0.0105 mL/L 1 time per day, day 6): 0.0 ± 0.0% | % Lysis ([2]; 0.0105 mL/L 1 time per day, day 7): 2.4 ± 0.0% | cell lysis ([2]; flasks across treatments, 0.0105 mL/L): below 10% | Maximum % Lysis of Culture ([3]; Bioreactor 2410): 70% | Maximum % Lysis of Culture ([3]; Bioreactor 2420): 20% | Maximum % Lysis of Culture ([3]; Bioreactor 2430): 35% | reduction of the level of cell lysis ([3]; at least 0.007 mL/L every 6 hours, flask tests and commercial scale cultures together): at least 60% | lysis ([3]; two of the commercial scale cultures treated with hydrogen peroxide): 20-35%

[Cl-].[Na+] [NaCl, sodium chloride]
% Chytrid infection in 230L reactors (chytrids; 4 ppt, 2 d): 0.00% | % Chytrid infection in 230L reactors (chytrids; 4 ppt, 3 d): 1.67% | % Chytrid infection in 230L reactors (chytrids; 4 ppt, 4 d): 0.00% | % Chytrid infection in 230L reactors (chytrids; 4 ppt, 5 d): 0.00% | % Chytrid infection in 230L reactors (chytrids; 4 ppt, 6 d): 0.00% | % Chytrid infection in 230L reactors (chytrids; 4 ppt, 7 d): 1.67% | % Chytrid infection in 230L reactors (chytrids; 4 ppt, 8 d): 0.00% | % Chytrid infection in 230L reactors (chytrids; 4 ppt, 9 d): 11.67% | % Chytrid infection in 230L reactors (chytrids; 4 ppt, 10 d): 30.00% | % Chytrid infection in 230L reactors (chytrids; 4 ppt, 11 d): 36.67% | % Chytrid infection in 230L reactors (chytrids; 4 ppt, 12 d): 65.00% | % Chytrid infection in 230L reactors (chytrids; 5 ppt, 2 d): 1.67% | % Chytrid infection in 230L reactors (chytrids; 5 ppt, 3 d): 0.00% | % Chytrid infection in 230L reactors (chytrids; 5 ppt, 4 d): 1.67% | % Chytrid infection in 230L reactors (chytrids; 5 ppt, 5 d): 0.00% | % Chytrid infection in 230L reactors (chytrids; 5 ppt, 6 d): 0.00% | % Chytrid infection in 230L reactors (chytrids; 5 ppt, 7 d): 8.33% | % Chytrid infection in 230L reactors (chytrids; 5 ppt, 8 d): 0.00% | % Chytrid infection in 230L reactors (chytrids; 5 ppt, 9 d): 10.00% | % Chytrid infection in 230L reactors (chytrids; 5 ppt, 10 d): 3.33% | % Chytrid infection in 230L reactors (chytrids; 5 ppt, 11 d): 13.33% | % Chytrid infection in 230L reactors (chytrids; 5 ppt, 12 d): 28.33% | % Chytrid infection in 230L reactors (chytrids; 6 ppt, 2 d): 1.67% | % Chytrid infection in 230L reactors (chytrids; 6 ppt, 3 d): 0.00% | % Chytrid infection in 230L reactors (chytrids; 6 ppt, 4 d): 1.67% | % Chytrid infection in 230L reactors (chytrids; 6 ppt, 5 d): 1.67% | % Chytrid infection in 230L reactors (chytrids; 6 ppt, 6 d): 1.67% | % Chytrid infection in 230L reactors (chytrids; 6 ppt, 7 d): 5.00% | % Chytrid infection in 230L reactors (chytrids; 6 ppt, 8 d): 3.33% | % Chytrid infection in 230L reactors (chytrids; 6 ppt, 9 d): 0.00% | % Chytrid infection in 230L reactors (chytrids; 6 ppt, 10 d): 1.67% | % Chytrid infection in 230L reactors (chytrids; 6 ppt, 11 d): 0.00% | % Chytrid infection in 230L reactors (chytrids; 6 ppt, 12 d): 15.00% | % Chytrid infection in 230L reactors (chytrids; 7 ppt, 2 d): 3.33% | % Chytrid infection in 230L reactors (chytrids; 7 ppt, 3 d): 0.00% | % Chytrid infection in 230L reactors (chytrids; 7 ppt, 4 d): 0.00% | % Chytrid infection in 230L reactors (chytrids; 7 ppt, 5 d): 1.67% | % Chytrid infection in 230L reactors (chytrids; 7 ppt, 6 d): 0.00% | % Chytrid infection in 230L reactors (chytrids; 7 ppt, 7 d): 5.00% | % Chytrid infection in 230L reactors (chytrids; 7 ppt, 8 d): 1.67% | % Chytrid infection in 230L reactors (chytrids; 7 ppt, 9 d): 3.33% | % Chytrid infection in 230L reactors (chytrids; 7 ppt, 10 d): 5.00% | % Chytrid infection in 230L reactors (chytrids; 7 ppt, 11 d): 0.00% | % Chytrid infection in 230L reactors (chytrids; 7 ppt, 12 d): 3.33% | % Chytrid infection in 230L reactors (chytrids; 8 ppt, 2 d): 0.00% | % Chytrid infection in 230L reactors (chytrids; 8 ppt, 3 d): 0.00% | % Chytrid infection in 230L reactors (chytrids; 8 ppt, 4 d): 0.00% | % Chytrid infection in 230L reactors (chytrids; 8 ppt, 5 d): 1.67% | % Chytrid infection in 230L reactors (chytrids; 8 ppt, 6 d): 0.00% | % Chytrid infection in 230L reactors (chytrids; 8 ppt, 7 d): 0.00% | % Chytrid infection in 230L reactors (chytrids; 8 ppt, 8 d): 0.00% | % Chytrid infection in 230L reactors (chytrids; 8 ppt, 9 d): 0.00% | % Chytrid infection in 230L reactors (chytrids; 8 ppt, 10 d): 1.67% | % Chytrid infection in 230L reactors (chytrids; 8 ppt, 11 d): 1.67% | % Chytrid infection in 230L reactors (chytrids; 8 ppt, 12 d): 3.33% | % Chytrid infection in 230L reactors (chytrids; 10 ppt, 2 d): 0.00% | % Chytrid infection in 230L reactors (chytrids; 10 ppt, 3 d): 0.00% | % Chytrid infection in 230L reactors (chytrids; 10 ppt, 4 d): 1.67% | % Chytrid infection in 230L reactors (chytrids; 10 ppt, 5 d): 0.00% | % Chytrid infection in 230L reactors (chytrids; 10 ppt, 6 d): 0.00% | % Chytrid infection in 230L reactors (chytrids; 10 ppt, 7 d): 0.00% | % Chytrid infection in 230L reactors (chytrids; 10 ppt, 8 d): 0.00% | % Chytrid infection in 230L reactors (chytrids; 10 ppt, 9 d): 1.67% | % Chytrid infection in 230L reactors (chytrids; 10 ppt, 10 d): 0.00% | % Chytrid infection in 230L reactors (chytrids; 10 ppt, 11 d): 6.67% | % Chytrid infection in 230L reactors (chytrids; 10 ppt, 12 d): 3.33% | % Chytrid infection in 230L reactors (chytrids; 18 ppt, 2 d): 0.00% | % Chytrid infection in 230L reactors (chytrids; 18 ppt, 3 d): 0.00% | % Chytrid infection in 230L reactors (chytrids; 18 ppt, 4 d): 0.00% | % Chytrid infection in 230L reactors (chytrids; 18 ppt, 5 d): 3.33% | % Chytrid infection in 230L reactors (chytrids; 18 ppt, 6 d): 0.00% | % Chytrid infection in 230L reactors (chytrids; 18 ppt, 7 d): 0.00% | % Chytrid infection in 230L reactors (chytrids; 18 ppt, 8 d): 1.67% | % Chytrid infection in 230L reactors (chytrids; 18 ppt, 9 d): 3.33% | % Chytrid infection in 230L reactors (chytrids; 18 ppt, 10 d): 0.00% | % Chytrid infection in 230L reactors (chytrids; 18 ppt, 11 d): 1.67% | % Chytrid infection in 230L reactors (chytrids; 18 ppt, 12 d): 1.67% | chytrid infection (chytrids; treatments at 7 ppt and above in 230 L reactors): 5-10%
